# Experimental data: US3948911A, “Substituted quinoxaline-2-carboxamide 1,4-dioxides” (Pfizer Inc., priority 1974, dated 1976)
# Read-outs that look alike come from different tables or passages of the source.
# Assays:
# E. coli [1] = experiment: in vivo activity in mice infected with a lethal inoculum, survivors; conditions: for IN VIVO Survivors-SC E. coli / responders at 25 mg/kg: subcutaneous; for IN VIVO Survivors-SC E. coli / responders at 25 mg/kg / IN VIVO Survivors (PO) E. coli: 25 mg./kg., survivors/treated mice
# Protocol: (§1) In determining in vivo activity of the quinoxaline-1,4-dioxides of this invention, the test compound is administered to mice which have been infected by […] injection of a lethal inoculum of pathogenic bacteria. The test compound is administered using a multiple dosing regimen and using either the oral (PO) or the subcutaneous (SC) route. The inoculum of bacteria varies from about 1 to about 10 times the amount needed to kill 100% of the mice under the conditions of the test. At the end of the test, the activity of the compound is assessed by counting the number of survivors among the treated animals.
# (§2) In vitro and in vivo activity of representative compounds of this invention, determined as aforesaid, are reported in the following tabulation for compounds of the formula: ##SPC3##
# Strep. pyogenes [2] = experiment: as above; conditions: for IN VIVO Survivors (PO) Strep. pyogenes / IN VIVO Survivors-SC Strep. pyogenes / responders at 50 mg/kg: 50 mg./kg., survivors/treated mice; for responders at 100 mg/kg / responders at 50 mg/kg: Streptococcus pyogenes; for responders at 100 mg/kg: footnote (c): dosage = 100 mg./kg.
# Protocol: as §1, §2
# E. coli [3] = experiment: in vitro antibacterial activity, two-fold serial dilution in Brain-Heart Infusion Broth, MIC; format: cell-based; conditions: for MIC: Escherichia coli, read-out: IN VITRO MIC E. coli
# Protocol: (§3) The broth is inoculated with bacteria and with the test quinoxaline-1,4-dioxide and then it is incubated overnight under anerobic conditions. On the next day, the test is read visually. The minimum inhibitory concentration (MIC) of the test compound is the lowest concentration which prevents turbidity, i.e., which prevents growth of the microorganism.
# as §2
# Strep. pyogenes [4] = experiment: as above; format: cell-based; conditions: overnight, anaerobic; for MIC: Streptococcus pyogenes
# Protocol: as §3, §2
# [5] = Brain-Heart Infusion Broth, overnight, anaerobic
# [6] = sc, subcutaneous, read-out: IN VIVO Survivors-SC Strep. pyogenes (converted)
# [7] = oral, read-out: IN VIVO Survivors (PO) Strep. pyogenes (converted)
Compound,IN VIVO Survivors-SC E. coli (E. coli [1]),IN VIVO Survivors (PO) Strep. pyogenes (Strep. pyogenes [2]; oral),IN VIVO Survivors-SC Strep. pyogenes (Strep. pyogenes [2]; subcutaneous),IN VITRO MIC E. coli (E. coli [3]; [5]) [µg/mL],IN VITRO MIC Strep. pyogenes (Strep. pyogenes [4]) [µg/mL],"responders at 25 mg/kg (E. coli [1]; Escherichia coli, sc) [%]",IN VIVO Survivors (PO) E. coli (E. coli [1]),"responders at 100 mg/kg (Strep. pyogenes [2]; sc, subcutaneous, read-out: IN VIVO Survivors-SC Strep. pyogenes) [%]","responders at 100 mg/kg (Strep. pyogenes [2]; oral, read-out: IN VIVO Survivors (PO) Strep. pyogenes) [%]",MIC (E. coli [3]) [µg/mL],MIC (Strep. pyogenes [4]) [µg/mL],responders at 50 mg/kg (Strep. pyogenes [2]; [6]) [%],responders at 50 mg/kg (Strep. pyogenes [2]; [7]) [%],MIC (E. coli [3]; [5]) [µg/mL],"responders at 100 mg/kg (E. coli [1]; Escherichia coli, sc, read-out: IN VIVO Survivors-SC E. coli) [%]"
"6-(7)-Formyl-N-(2-Hydroxyethyl)-3-Methyl-2-Quinoxalinecarboxamide 1,4-Dioxide Ethylene Acetal [NHCH2 CH2 OH 6(7)-OO.angle.C.angle.H CH3]",3/10,3/10,2/10,25,0.781,,,,,,,,,,
CC(=O)c1ccc2c(c1)[n+]([O-])c(C)c(C(=O)N(C)C)[n+]2[O-] [N(CH3)2 6-COCH3 CH3],,,,,,20,0/5,60,50,6.25,6.25,,,,
CC(=O)c1ccc2c(c1)[n+]([O-])c(C(=O)N(C)C)c(C)[n+]2[O-] [N(CH3)2 7-COCH3 CH3],,,,,,0,,,,,6.25,60,20,6.25,
"CC(=O)c1ccc2c(c1)[n+]([O-])c(C)c(C(N)=O)[n+]2[O-] [NH2 6-COCH3 CH3, 6- and 7-Acetyl-3-Methyl-2-Quinoxalinecarboxamide 1,4-dioxide]",,,,,,100,5/5,,,,< 0.391,100,90,< 0.391,
"CC(=O)c1ccc2c(c1)[n+]([O-])c(C(N)=O)c(C)[n+]2[O-] [NH2 7-COCH3 CH3, 6- and 7-Acetyl-3-Methyl-2-Quinoxalinecarboxamide 1,4-dioxide]",,,,,,100,,,,,0.391,100,80,< 0.391,
Cc1c(C(N)=O)[n+]([O-])c2cc(C3(C)OCCO3)ccc2[n+]1[O-] [NH2 7-OO.angle.C.angle.CH3 CH3],,,,,,100,3/5,,,,12.5,80,80,12.5,
CC(=O)c1ccc2c(c1)[n+]([O-])c(C)c(C(=O)NCCO)[n+]2[O-] [NHCH2 CH2 OH 6-COCH3 CH3],,,,,,,,,,,< 0.391,50,20,< 0.391,30
CNC(=O)c1c(C)[n+]([O-])c2cc(C(C)=O)ccc2[n+]1[O-] [NHCH3 6-COCH3 CH3],,,,,,80,7/10,,,,0.781,60,40,< 0.391,
CNC(=O)c1c(C)[n+]([O-])c2ccc(CO)cc2[n+]1[O-] [NHCH3 7-CH2 OH CH3],,,,,,90,,,,,> 200,20,10,6.25,
CNC(=O)c1c(C)[n+]([O-])c2ccc(C(C)=O)cc2[n+]1[O-] [NHCH3 7-COCH3 CH3],,,,,,60,,,,,0.391,50,90,0.391,
"Ethyl 6(7)-Hydroxymethyl-3-Methyl-2-Quinoxaline-Carboxylate 1,4-Dioxide [OCH2 CH3 6(7)-CH2 OH CH3]",4/10,5/10,6/10,25,25,,,,,,,,,,
"N,3-Dimethyl-6(7)-Hydroxymethyl-2-Quinoxalinecarboxamide 1,4-Dioxide [NHCH3 6(7)-CH2 OH CH3]",8/10,3/10,3/10,25,50,,,,,,,,,,
"N-Methyl-6(7)-Hydroxymethyl-2-Quinoxalinecarboxamide 1,4-Dioxide [NHCH3 6(7)-CH2 OH H]",4/10,6/10,10/10,1.562,0.781,,,,,,,,,,
